Source: patent publication US20220153732A1, “PROTEIN SECRETION INHIBITORS” (KEZAR LIFE SCIENCES, priority 2019, published 2022)
Where two headings read alike, the source gives them in different places.

What was measured:
Type in all cases: cell-based
[1] = test system: IL-2-FL/Gaussia Luciferase; test: Dox Induced IL2-FL-Gluc Assay
Method in brief: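 Stable T-REx cell line expressing doxycycline-inducible IL-2-FL/Gaussia luciferase cDNA, plated the day before assay. Compound dilutions in DMSO/media containing doxycycline added and incubated at 37° C., 5% CO2. Unspecified stereochemistry means data refer to a stereoisomer mixture.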

[2] = test system: human multiple myeloma cell line NCI-H929; test: H929 Cell Viability Assay; settings: 48 hr, NCI-H929 cells, Celltiter-Glo, read-out: 48 hr H929 Viability Celltiter-Glo: Mean EC50
Method: Plates were incubated at 37° C., 5% CO2 for 48 hours. After 48 hours, Celltiter-Glo® (Promega) was added to each well and luciferase signal was quantified using Tecan Infinite M1000 Pro for cell viability determination.
For chemical structures that include one or more stereoisomers, but are illustrated without indicating stereochemistry, the assay data refers to a mixture of stereoisomers.

[3] = test system: HER3-ss+4aa/Gaussia Luciferase; test: Dox-Induced Her3-ss-Gluc Assay
Method in brief: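 Stable T-REx cell line carrying a doxycycline-regulated HER3-ss+4aa/Gaussia luciferase insert, plated the day before assay. Compound dilutions in DMSO/media with doxycycline added, then incubated at 37° C., 5% CO2. Stereoisomer mixtures tested where stereochemistry is not drawn.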

[4] = test system: PD1-ss+10aa/Gaussia Luciferase; test: Dox-Induced PD1-ss-Gluc Assay
Method in brief: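 Stable cell line carrying PD1-ss+10aa/Gaussia luciferase cDNA under T-REx (doxycycline-inducible) control, plated the day before assay. Compound dilutions in DMSO/media containing doxycycline added and incubated at 37° C, 5% CO2. Undefined stereocentres: data refer to stereoisomer mixtures.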

[5] = test system: TNFα-FL/Gaussia Luciferase; test: Dox Induced TNFα-FL-Gluc Assay
Method in brief: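 A stable T-REx cell line carrying doxycycline-inducible TNFα-FL/Gaussia luciferase was plated the day before assay. Compound dilutions in DMSO/media containing doxycycline were then added and incubated at 37° C, 5% CO2.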

[6] = test system: human multiple myeloma cell line U266B1; test: U266 Cell Viability Assay; settings: U-266, 48 hr, U266B1 cells, Celltiter-Glo, read-out: 48 hr U266 Viability Celltiter-Glo: Mean EC50
Method in brief: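 U266B1 myeloma cells treated with compound dilutions in DMSO/media for 48 h at 37 °C, 5% CO2. Viability read by CellTiter-Glo luminescence. Stereochemically undefined structures were tested as stereoisomer mixtures.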

[7] = 24 hr, doxycycline-induced, 293FRT/TO cells; read-out: 24 hr Dox Inducible IL2FLGIuc 293FRT/TO: Mean IC50
[8] = 24 hr, doxycycline-induced, 293FRT/TO cells; read-out: 24 hr Dox Inducible Her3(ss + 4)Gluc 293FRT/TO: Mean IC50
[9] = 24 hr, doxycycline-induced, 293FRT/TO cells; read-out: 24 hr Dox Inducible PD1ssGluc 293FRT/TO: Mean IC50
[10] = 24 hr, doxycycline-induced, 293FRT/TO cells; read-out: 24 hr Dox Inducible TNFaFLGluc 293FRT/TO: Mean IC50
[11] = 24 hr doxycycline induction, 293FRT/TO cells, Gaussia luciferase signal; read-out: 24 hr Dox Inducible IL2FLGIuc 293FRT/TO: Mean IC50
[12] = 24 hr doxycycline induction, 293FRT/TO cells, Gaussia luciferase signal; read-out: 24 hr Dox Inducible Her3(ss + 4)Gluc 293FRT/TO: Mean IC50
[13] = 24 hr doxycycline induction, 293FRT/TO cells, Gaussia luciferase signal; read-out: 24 hr Dox Inducible PD1ssGluc 293FRT/TO: Mean IC50
[14] = 24 hr doxycycline induction, 293FRT/TO cells, Gaussia luciferase signal; read-out: 24 hr Dox Inducible TNFaFLGluc 293FRT/TO: Mean IC50

SMILES	IC50 ([1]; read-out: 24 hr Dox Inducible IL2FLGIuc 293FRT/TO: Mean IC50; 24 hr, doxycycline-induced, 293FRT/TO cells) [nM]	EC50 [2] [µM]	IC50 ([3]; read-out: 24 hr Dox Inducible Her3(ss + 4)Gluc 293FRT/TO: Mean IC50; 24 hr, doxycycline-induced, 293FRT/TO cells) [nM]	IC50 ([4]; read-out: 24 hr Dox Inducible PD1ssGluc 293FRT/TO: Mean IC50; 24 hr, doxycycline-induced, 293FRT/TO cells) [nM]	IC50 ([5]; read-out: 24 hr Dox Inducible TNFaFLGluc 293FRT/TO: Mean IC50; 24 hr, doxycycline-induced, 293FRT/TO cells) [nM]	EC50 [6] [µM]	IC50 [1, 7] [nM]	IC50 [3, 8] [nM]	IC50 [4, 9] [nM]	IC50 [5, 10] [nM]	IC50 [1, 11] [nM]	IC50 [3, 12] [nM]	IC50 [4, 13] [nM]	IC50 [5, 14] [nM]
CC(C)(C)[Si](O[C@H]1C[C@H](c2csc(NC(=O)c3cccn3Cc3ccncc3)n2)N(c2ccccc2)C1)(c1ccccc1)c1ccccc1 [Compound A323]	10	0.118	13	7	11	> 25								
C[C@]1(c2csc(NC(=O)c3cccn3Cc3ccncc3)n2)CCCN1c1ccccc1 [Compound A338]		14.8				> 25	345	264	205	1850				
O=C(Nc1nc(/C=C/c2ncccn2)cs1)c1cccn1Cc1ccncc1 [Compound A307]		> 25				> 25	> 25000	8810	679	> 25000				
COc1ccc(/C=C/c2csc(NC(=O)c3cccn3Cc3ccncc3)n2)c(F)c1 [Compound A241, N-(4-(2-fluoro-4-methoxystyryl)thiazol-2-yl)-1-(pyridin-4-ylmethyl)-1H-pyrrole-2-carboxamide]		8.37				> 25					324	179	27	1320
O=C(Nc1nc(C#Cc2ccccc2Cl)cs1)c1cccn1Cc1ccncc1 [Compound A144]		6.86				10.4					748	395	151	905
O=C(Nc1nc(N2CCC(c3ccccc3)C2)cs1)c1cccn1Cc1ccncc1 (stereo not drawn) [Compound A273]		> 25				> 25					> 25000	> 25000	> 25000	> 25000
O=C(Nc1nc(C2CC2)cs1)c1cccn1Cc1ccncc1 [Compound A51]		> 25				> 25					2980	3420	1300	> 25000
NC(=O)c1ccc(/C=C/c2csc(NC(=O)c3cccn3Cc3ccncc3)n2)cc1 [Compound A231]		16.8				> 25					7070	> 25000	506	11200
O=C(Nc1nc([C@H]2CCCN2Cc2ccccc2)cs1)c1cccn1Cc1ccncc1 [Compound A278]		> 23.9				> 25					1270	1130	538	5000
O=C(Nc1nc(Cc2ccccc2)cs1)c1cccn1CCCc1cccnc1 [Compound A187, N-(4-benzylthiazol-2-yl)-1-(3-(pyridin-3-yl)propyl)-1H-pyrrole-2-carboxamide]		18.3				> 25					11600	> 21900	10400	> 25000
CC(C)(C)c1csc(NC(=O)c2cccn2Cc2ccncc2)n1 [Compound A45, N-(4-(tert-butyl)thiazol-2-yl)-1-(pyridin-4-ylmethyl)-1H-pyrrole-2-carboxamide]		> 25				> 25					869	1640	965	13800
CC(C)OC(C)(C)c1csc(NC(=O)c2cccn2CCCc2ccncc2F)n1 [Compound A243, 1-(3-(3-fluoropyridin-4-yl)propyl)-N-(4-(2-isopropoxypropan-2-yl)thiazol-2-yl)-1H-pyrrole-2-carboxamide]		14.8				> 25					136	199	178	2360
O=C(Nc1nc(N2CCN(c3ccccc3)CC2)cs1)c1cccn1Cc1ccncc1 [Compound A266]		> 25				> 25					> 25000	9000	6250	> 25000
CC(C)(OC1CCCCC1)c1csc(NC(=O)c2cccn2Cc2ccncc2)n1 [Compound A10, N-(4-(2-(cyclohexyloxy)propan-2-yl)thiazol-2-yl)-1-(pyridin-4-ylmethyl)-1H-pyrrole-2-carboxamide]		15.6				> 25					158	195	105	1580
Cc1sc(NC(=O)c2cccn2Cc2ccncc2)nc1/C=C/c1ccccc1 [Compound A297]		> 25				> 25	687	251	66	2820				
O=C(Nc1nc(Cc2ccccc2)cs1)c1cccn1Cc1ccncc1 [Compound A17, N-(4-benzylthiazol-2-yl)-1-(pyridin-4-ylmethyl)-1H-pyrrole-2-carboxamide]		20.8				> 25					804	560	191	2240
Cc1nc(NC(=O)c2cccn2Cc2ccncc2)sc1F [Compound A42]		> 25				> 25					3790	2180	939	> 25000
COc1ccccc1/C=C/c1csc(NC(=O)c2cccn2Cc2ccncc2)n1 [Compound A158, N-(4-(2-methoxystyryl)thiazol-2-yl)-1-(pyridin-4-ylmethyl)-1H-pyrrole-2-carboxamide]		15.7				> 25					1470	993	293	2420
CC(C)(C)c1cnc(NC(=O)c2cccn2Cc2ccncc2)s1 [Compound A54]		> 25				> 25					4450	4050	1380	> 25000
O=C(Nc1nc2c(s1)CCCC2)c1cccn1Cc1ccncc1 [Compound A52]		> 25				> 25					1950	2840	1360	> 25000
O=C(Nc1nc([C@H]2C[C@@H](c3ccccn3)C2)cs1)c1cccn1Cc1ccncc1 [Compound A349]		12.5				> 25	1700	1260	364	6620				
O=C(Nc1nc(/C=C/c2ccccc2Cl)cs1)c1cccn1Cc1ccncc1 [Compound A161, N-(4-(2-chlorostyryl)thiazol-2-yl)-1-(pyridin-4-ylmethyl)-1H-pyrrole-2-carboxamide]		5.28				10.9					1070	523	134	2870
COc1cccc(C(C)OC(C)(C)c2csc(NC(=O)c3cccn3Cc3ccncc3)n2)c1 (stereo not drawn) [Compound A4, N-(4-(2-(1-(3-methoxyphenyl)ethoxy)propan-2-yl)thiazol-2-yl)-1-(pyridin-4-ylmethyl)-1H-pyrrole-2-carboxamide]		2.77				> 25					148	91	38	377
CC(C)OC(C)(C)c1csc(NC(=O)c2cccn2[C@@H](C)c2ccncc2)n1 [Compound A74, (S)-N-(4-(2-isopropoxypropan-2-yl)thiazol-2-yl)-1-(1-(pyridin-4-yl)ethyl)-1H-pyrrole-2-carboxamide]		> 25				> 25					4220	5390	2570	> 25000
